# Results published in PubChem BioAssay AID540323 (Johns Hopkins Ion Channel Center, 2011).
# The source made the active and inactive calls.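 How the source made its calls: active means peak hERG channel inhibition above 30% at some tested dose, together with a fitted dose response curve; inactive means no hERG inhibition at any dose, or no curve.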
# Molecular target: Voltage-gated inwardly rectifying potassium channel KCNH2 (Homo sapiens) (UniProt Q12809)
# Assay: KCNH2 potassium channel blockade – FluxOR Tl flux, hERG cells, CRC 2, selectivity assay for KCNK9 inhibitor project, SAR follow-up (AID 540323)
# Details: hERG-expressing cells, FluxOR thallium flux fluorescence; at 30 µM (top of the series); test wells contain dofetilide at its IC70
# Sequence of Voltage-gated inwardly rectifying potassium channel KCNH2 (Homo sapiens) (Q12809 whole entry, looked up): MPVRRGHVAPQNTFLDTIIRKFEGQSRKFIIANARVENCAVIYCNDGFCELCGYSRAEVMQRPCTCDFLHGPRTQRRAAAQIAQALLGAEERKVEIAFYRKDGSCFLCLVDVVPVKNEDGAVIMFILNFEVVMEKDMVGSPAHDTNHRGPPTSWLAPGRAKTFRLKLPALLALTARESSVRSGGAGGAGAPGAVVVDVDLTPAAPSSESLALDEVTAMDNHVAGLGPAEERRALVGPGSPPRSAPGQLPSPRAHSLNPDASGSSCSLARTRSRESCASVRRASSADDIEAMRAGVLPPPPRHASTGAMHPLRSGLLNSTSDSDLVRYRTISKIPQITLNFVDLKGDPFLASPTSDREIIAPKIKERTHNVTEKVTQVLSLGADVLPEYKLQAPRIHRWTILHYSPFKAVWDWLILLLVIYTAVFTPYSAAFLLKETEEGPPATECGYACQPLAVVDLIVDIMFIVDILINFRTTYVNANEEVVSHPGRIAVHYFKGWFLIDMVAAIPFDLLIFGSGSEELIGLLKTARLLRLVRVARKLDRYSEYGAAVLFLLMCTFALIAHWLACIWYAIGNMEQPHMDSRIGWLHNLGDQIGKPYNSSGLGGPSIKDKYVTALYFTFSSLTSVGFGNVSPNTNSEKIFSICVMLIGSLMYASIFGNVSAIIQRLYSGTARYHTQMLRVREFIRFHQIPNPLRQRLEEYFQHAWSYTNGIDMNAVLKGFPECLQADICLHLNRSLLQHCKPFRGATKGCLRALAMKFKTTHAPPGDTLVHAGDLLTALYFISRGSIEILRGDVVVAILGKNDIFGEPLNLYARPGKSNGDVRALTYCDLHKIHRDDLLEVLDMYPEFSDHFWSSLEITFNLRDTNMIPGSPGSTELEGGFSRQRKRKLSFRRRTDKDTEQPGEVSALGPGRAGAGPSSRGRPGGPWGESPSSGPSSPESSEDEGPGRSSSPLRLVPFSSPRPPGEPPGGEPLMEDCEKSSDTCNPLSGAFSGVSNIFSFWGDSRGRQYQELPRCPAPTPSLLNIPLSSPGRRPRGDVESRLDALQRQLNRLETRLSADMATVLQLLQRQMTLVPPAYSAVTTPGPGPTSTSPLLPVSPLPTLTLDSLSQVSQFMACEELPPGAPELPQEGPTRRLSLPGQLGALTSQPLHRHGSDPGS
row,Compound,"fluorescence ratio, lower = inhibition"
1,COc1cccc(C(=O)Nc2cccc(NC(=O)c3ccccc3)c2)c1,inactive
2,CCOc1ccccc1NC(=O)c1cccc(NC(=O)c2cccc(OC)c2)c1,inactive
3,CCOc1ccccc1C(=O)Nc1cccc(NC(=O)C2CCCC2)c1,inactive
4,COc1ccccc1C(=O)Nc1cccc(NC(=O)c2ccccc2C)c1,inactive
5,COc1ccccc1NC(=O)c1cccc(NC(=O)C2CCCCC2)c1,inactive
6,O=C(Nc1cccc(NC(=O)c2cccc(C(F)(F)F)c2)c1)c1ccccc1,inactive
7,Cc1cccc(C(=O)Nc2cccc(NC(=O)c3ccccc3Cl)c2)c1,inactive
8,Cc1cccc(C(=O)Nc2cccc(NC(=O)c3cccs3)c2)c1,inactive
